The record followed here is patent publication US8883801B2, “Substituted pyrazolo[1,5-a]pyrimidines as mTOR inhibitors” (Merck Sharp & Dohme Corp., priority 2010, dated 2014).

In one test the target is human mTOR enzyme (Homo sapiens, UniProt P42345). Kind of test: HTRF mTOR enzyme (kinase) assay. It counts as biochemical. The conditions noted are these: rated class; 5 μM ATP, 0.2 μM GST-S6K; read-out: hMTOR IC50. As to the method: Methods: An HTRF mTOR enzyme assay was developed to assess the compounds' inhibitory activity. The mTOR assay buffer contained 10 mM Hepes (pH 7.4), 50 mM NaCl, […] BSA, 50 mM […], 10 mM MnCl2 and 0.5 mM DTT. […] 20 ng of human mTOR enzyme (<5% pure was preincubated with the compound for 10 minutes followed by the addition of 5 μM ATP and 0.2 μM GST-S6K (Zhang et al., Protein Expression and Purification 46, pp 414-420 (2006)). The reaction was incubated for one hour at 30° C. Anti phospho p70-S6K(Thr389) (˜1.7 ng/well, anti-phospho-p70S6K-cryptate (Pho-p70S6-Kin-K cat#64CUSKAY, from Cisbio)) and anti GST-XL665 (1:1 Ratio with the substrate GST-S6K, anti GST-XL665, cat#61GSTXLB) Cisbio) were added after the reaction was stopped. The plates were read (PHERAstar, BMG) at least 2 hours after adding the anti phospho p70-S6K and the anti GST-XL665.
IC50 DETERMINATIONS: Dose-response curves were plotted from the inhibition data generated, each in duplicate, from 8 point serial dilutions of inhibitory compounds. Concentration of compound was plotted against the HTRF em665/em590 ratio signal. To generate IC50 values, the dose-response curves were fitted to a standard sigmoidal curve and IC50 values were derived by nonlinear regression analysis.
A general note: TR-FRET usually uses a lanthanide donor and a delayed reading to cut background.

For test [1], the system named is mTORC2 activity: phosphorylated AKT Ser473 (pAKT S473) in PC3 cells. As to the kind of experiment: mTOR target engagement assay, immunofluorescent cell-based, mTORC2 readout. The conditions noted are these: Homo sapiens, PC-3, 1.5 h, rated class, 90 min treatment. As to the method: The target engagement of mTOR kinase inhibitors was evaluated using an immunofluorescent cell-based assay. In this assay, inhibition of mTORC1 activity was measured by the reduction in the level of phosphorylated 4E-BP1Thr37/46 (p4E-BP1 Thr37/46), and inhibition of mTORC2 activity was measured by the reduction of phosphorylated AKTSer473 (pAKT S473).
PC3 cells (prostate tumor cell-line that contains a mutation in the tumor suppressor PTEN, that promotes the phosphorylation and activation of AKT and 4E-BP1) were used in the immunofluorescence assay. PC3 cells were seeded on 384 well plates (black clear bottom, Matrix #4332) overnight. PC3 cells were then treated with 40 μl of the serially diluted test compounds (in 5% fetal bovine serum, F12 medium containing 0.25% DMSO) for ninety minutes at 37° C. The test compound solution was removed, and the plates were washed gently two times with 25 μl phosphate buffered saline (PBS). The cells were fixed by adding 25 μl of Prefer reagent (from Anatech LTD, Cat#414, a glyoxal fixative for fixing proteins within a cell) for sixty minutes followed by three washes with PBS. 5% Goat serum in PBS/0.3% Triton was used to block non-specific binding (60 minutes).
The primary antibodies targeting pAKT S473 and p4E-BP1 Thr37/46 were diluted into PBS/0.3% Triton and incubated with the cells overnight at 4° C. The antibodies targeting pAKTS473 (Cat#4085, Cell signaling) and p4E-BP1 Thr37/46 (Cat#2855, Cell signaling) were used at a 1:100 dilution. Plates were washed three times with PBS/0.1% Tween 20 before adding the secondary antibody at a 1:200 dilution. (goat anti-rabbit containing a fluorescent label, Alexa Fluor 488, Cat#A11008, Invitrogen) in PBS/0.3% Triton for 60 minutes.
Finally, the plates were washed three times with PBS/0.1% Tween 20 and the fluorescent intensity was read using an Analyst HT from Molecular Devices. The fluorescent intensity values from the serially diluted compound treatment group were analyzed using the Xlfit 4 program ([…]) (Formula 205: Y=Bottom+(Top-Bottom)/(1+(IC50/X)^Hillslope) to generate the IC50 value. Where Top is the maximum signal without Compound (+DMSO only) and Bottom represents maximum inhibition. Y is the fluorescence at some compound concentration. The control used to determine the fluorescent intensities for 100% pAKT S473 or 100% phosphorylated p4E-BP1 Thr37/46 were measured from untreated wells that contained only DMSO, instead of test compound.

pIC50: −log10 of the molar value.

Sequence of human mTOR enzyme (P42345 1360-2549 limits assumed): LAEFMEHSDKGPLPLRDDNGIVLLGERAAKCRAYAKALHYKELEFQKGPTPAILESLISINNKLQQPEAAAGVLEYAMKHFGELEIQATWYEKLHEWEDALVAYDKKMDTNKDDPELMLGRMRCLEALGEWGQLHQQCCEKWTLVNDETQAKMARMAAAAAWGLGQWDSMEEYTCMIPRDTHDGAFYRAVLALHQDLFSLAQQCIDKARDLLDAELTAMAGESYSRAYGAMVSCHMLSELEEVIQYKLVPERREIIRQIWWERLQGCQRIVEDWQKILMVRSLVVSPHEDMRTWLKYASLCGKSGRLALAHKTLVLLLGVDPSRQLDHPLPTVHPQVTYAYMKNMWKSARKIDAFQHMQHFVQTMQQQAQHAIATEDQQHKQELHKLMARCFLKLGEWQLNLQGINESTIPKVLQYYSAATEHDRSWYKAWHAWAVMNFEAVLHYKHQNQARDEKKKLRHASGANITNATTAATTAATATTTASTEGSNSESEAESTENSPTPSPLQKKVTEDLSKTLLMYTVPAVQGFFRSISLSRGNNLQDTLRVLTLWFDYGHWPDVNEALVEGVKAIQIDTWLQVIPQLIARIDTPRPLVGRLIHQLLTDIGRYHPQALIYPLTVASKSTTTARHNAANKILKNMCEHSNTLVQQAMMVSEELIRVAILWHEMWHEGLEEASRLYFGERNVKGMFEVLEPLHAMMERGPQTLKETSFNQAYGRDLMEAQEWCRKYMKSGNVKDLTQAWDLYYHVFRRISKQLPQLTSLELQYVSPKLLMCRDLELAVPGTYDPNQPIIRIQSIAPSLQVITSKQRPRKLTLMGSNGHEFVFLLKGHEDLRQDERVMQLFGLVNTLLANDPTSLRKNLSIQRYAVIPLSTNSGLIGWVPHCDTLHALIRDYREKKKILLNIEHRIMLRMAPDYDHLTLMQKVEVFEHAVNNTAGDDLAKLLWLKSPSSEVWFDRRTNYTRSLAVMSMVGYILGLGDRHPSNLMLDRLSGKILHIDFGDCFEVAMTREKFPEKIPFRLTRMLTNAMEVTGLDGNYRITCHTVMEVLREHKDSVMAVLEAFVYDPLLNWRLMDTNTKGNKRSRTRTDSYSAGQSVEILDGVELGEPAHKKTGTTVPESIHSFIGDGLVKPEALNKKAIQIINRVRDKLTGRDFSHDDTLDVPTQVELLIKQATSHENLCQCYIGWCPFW

With `CC(=O)c1c(N)n2ncc(-c3ccc(-c4ccccc4)nc3)c2nc1[C@H]1CC[C@](F)(C(=O)O)CC1` [Compound 16, (1S,4S)-(6-acetyl-7-amino-3-(6-phenylpyridin-3-yl)pyrazolo[1,5-a]pyrimidin-5-yl)-1-fluorocyclohexane-carboxylic acid], the pIC50 at human mTOR enzyme was 7.00 to 9.00; in test [1], 5.70 to 6.00.
On to `CC(=O)c1c(N)n2ncc(-c3ccc(-c4ccccc4)nc3)c2nc1[C@H]1CC[C@@](F)(C(=O)O)CC1` [Compound 17, (1R,4R)-4-(6-acetyl-7-amino-3-(6-phenylpyridin-3-yl)pyrazolo[1,5-a]pyrimidin-5-yl)-1-fluorocyclohexane-carboxylic acid], for which the pIC50 at human mTOR enzyme was 7.00 to 9.00; in test [1], 6.00 to 7.00.
Regarding `COC[C@]1(C(=O)O)CC[C@@H](c2nc3c(-c4ccc(-c5ccccc5)nc4)cnn3c(N)c2C(C)=O)CC1` [Compound 19, (1S,4S)-4-(6-acetyl-7-amino-3-(6-phenylpyridin-3-yl)pyrazolo[1,5-a]pyrimidin-5-yl)-1-(methoxymethyl)-cyclohexane-carboxylic acid], the pIC50 is 7.00 to 9.00 at human mTOR enzyme and 6.00 to 7.00 in test [1].
In the same order, the values of `COC[C@]1(C(=O)O)CC[C@@H](c2nc3c(-c4cnn(-c5ccccc5)c4)cnn3c(N)c2C(C)=O)CC1` [Compound 21, (1S,4S)-4-(6-acetyl-7-amino-3-(1-phenyl-1H-pyrazol-4-yl)pyrazolo[1,5-a]pyrimidin-5-yl)-1-(methoxymethyl)-cyclohexane-carboxylic acid] are 7.00 to 9.00 and 6.00 to 7.00.
Take `COC[C@]1(C(=O)O)CC[C@H](c2nc3c(-c4cnc5ccc(F)cc5c4)cnn3c(N)c2C(C)=O)CC1` [Compound 22, (1R,4R)-4-(6-acetyl-7-amino-3-(6-fluoroquinolin-3-yl)pyrazolo[1,5-a]pyrimidin-5-yl)-1-(methoxymethyl)-cyclohexane-carboxylic acid]: the figures for the pIC50 (at human mTOR enzyme; in test [1]) were 7.00 to 9.00 and 6.00 to 7.00, respectively.
On to `COC[C@]1(C(=O)O)CC[C@@H](c2nc3c(-c4cnc5ccc(F)cc5c4)cnn3c(N)c2C(C)=O)CC1` [Compound 23, (1S,4S)-4-(6-acetyl-7-amino-3-(6-fluoroquinolin-3-yl)pyrazolo[1,5-a]pyrimidin-5-yl)-1-(methoxymethyl)-cyclohexane-carboxylic acid], for which the pIC50 at human mTOR enzyme was 7.00 to 9.00; in test [1], 5.30 to 5.70.
Turning to `COCCOCC1(C(=O)O)CCC(c2nc3c(-c4ccc(-c5ccccc5)nc4)cnn3c(N)c2C(C)=O)CC1` (stereo not drawn) [Compound 24, 4-(6-acetyl-7-amino-3-(6-phenylpyridin-3-yl)pyrazolo[1,5-a]pyrimidin-5-yl)-1-((2-methoxyethoxy)methyl)cyclohexane-carboxylic acid], the pIC50 at human mTOR enzyme was 7.00 to 9.00; in test [1], 6.00 to 7.00.
As to `CS(=O)(=O)C1(C(=O)O)CCC(c2nc3c(-c4cnn(-c5ccccc5)c4)cnn3c(N)c2Br)CC1` (stereo not drawn) [Compound 27, 4-(7-amino-6-bromo-3-(1-phenyl-1H-pyrazol-4-yl)pyrazolo[1,5-a]pyrimidin-5-yl)-1-(methylsulfonyl)cyclohexanecarboxylic acid], the pIC50 is 7.00 to 9.00 at human mTOR enzyme and 5.30 to 5.70 in test [1].
In the same order, the values of `CO[C@]1(C(=O)O)CC[C@H](c2nc3c(-c4cnc5ccc(F)cc5c4)cnn3c(N)c2Br)CC1` [Compound 32, (1S,4S)-4-(7-amino-6-bromo-3-(6-fluoroquinolin-3-yl)pyrazolo[1,5-a]pyrimidin-5-yl)-1-methoxycyclohexane-carboxylic acid] are 7.00 to 9.00 and 6.00 to 7.00.
In the same order, the values of `CO[C@]1(C(=O)O)CC[C@@H](c2nc3c(-c4cnc5ccc(F)cc5c4)cnn3c(N)c2Br)CC1` [Compound 33, (1R,4R)-4-(7-amino-6-bromo-3-(6-fluoroquinolin-3-yl)pyrazolo[1,5-a]pyrimidin-5-yl)-1-methoxycyclohexane-carboxylic acid] are 7.00 to 9.00 and 5.70 to 6.00.
For the molecule `CO[C@]1(C(=O)O)CC[C@H](c2nc3c(-c4cnc5ccc(F)cc5c4)cnn3c(N)c2C(C)=O)CC1` [Compound 38, (1S,4S)-4-(6-acetyl-7-amino-3-(6-fluoroquinolin-3-yl)pyrazolo[1,5-a]pyrimidin-5-yl)-1-methoxycyclohexane-carboxylic acid], the values for the pIC50 (at human mTOR enzyme; in test [1]) were 7.00 to 9.00 and 6.00 to 7.00, respectively.
In the same order, the values of `CO[C@]1(C(=O)O)CC[C@@H](c2nc3c(-c4cnc5ccc(F)cc5c4)cnn3c(N)c2C(C)=O)CC1` [Compound 39, (1R,4R)-4-(6-acetyl-7-amino-3-(6-fluoroquinolin-3-yl)pyrazolo[1,5-a]pyrimidin-5-yl)-1-methoxycyclohexane-carboxylic acid] are 7.00 to 9.00 and 6.00 to 7.00.
In the same order, the values of `COCCO[C@]1(C(=O)O)CC[C@H](c2nc3c(-c4cnn(-c5ccccc5)c4)cnn3c(N)c2C(C)=O)CC1` [Compound 54, (1S,4S)-4-(6-acetyl-7-amino-3-(1-phenyl-1H-pyrazol-4-yl)pyrazolo[1,5-a]pyrimidin-5-yl)-1-(2-methoxyethoxy)cyclohexanecarboxylic acid] are 7.00 to 9.00 and 4.82 to 5.30.
Taken in the same sequence, the figures for `COCCO[C@]1(C(=O)O)CC[C@@H](c2nc3c(-c4cnn(-c5ccccc5)c4)cnn3c(N)c2C(C)=O)CC1` [Compound 55, (1R,4R)-4-(6-acetyl-7-amino-3-(1-phenyl-1H-pyrazol-4-yl)pyrazolo[1,5-a]pyrimidin-5-yl)-1-(2-methoxyethoxy)cyclohexanecarboxylic acid] were 7.00 to 9.00 and 6.00 to 7.00.
Take `COCCO[C@]1(C(=O)O)CC[C@H](c2nc3c(-c4ccc(-c5ccccc5)nc4)cnn3c(N)c2C(C)=O)CC1` [Compound 56, (1S,4S)-4-(6-acetyl-7-amino-3-(6-phenylpyridin-3-yl)pyrazolo[1,5-a]pyrimidin-5-yl)-1-(2-methoxyethoxy) cyclohexanecarboxylic acid]: the pIC50 at human mTOR enzyme was 7.00 to 9.00; in test [1] it was 4.82 to 5.30.
Taken in the same sequence, the figures for `COCCO[C@]1(C(=O)O)CC[C@@H](c2nc3c(-c4ccc(-c5ccccc5)nc4)cnn3c(N)c2C(C)=O)CC1` [Compound 57, (1R,4R)-4-(6-acetyl-7-amino-3-(6-phenylpyridin-3-yl)pyrazolo[1,5-a]pyrimidin-5-yl)-1-(2-methoxyethoxy) cyclohexanecarboxylic acid] were 7.00 to 9.00 and 6.00 to 7.00.
Turning to `CC(=O)c1c(N)n2ncc(-c3ccc(-c4ccccc4)nc3)c2nc1[C@H]1CC[C@@](OCCN2CCOCC2)(C(=O)O)CC1` [Compound 58, (1R,4R)-4-(6-acetyl-7-amino-3-(6-phenylpyridin-3-yl)pyrazolo[1,5-a]pyrimidin-5-yl)-1-(2-morpholinoethoxy) cyclohexanecarboxylic acid], the pIC50 was 7.00 to 9.00 at human mTOR enzyme and 6.00 to 7.00 in test [1].
For `COCCO[C@]1(C(=O)O)CC[C@@H](c2nc3c(-c4ccc(-c5nccs5)nc4)cnn3c(N)c2C(C)=O)CC1` [Compound 60, (1R,4R)-4-(6-acetyl-7-amino-3-(6-(thiazol-2-yl)pyridin-3-yl)pyrazolo[1,5-a]pyrimidin-5-yl)-1-(2-methoxyethoxy) cyclohexanecarboxylic acid], the pIC50 is 7.00 to 9.00 on human mTOR enzyme and 6.00 to 7.00 in test [1].

As usually defined, the pIC50 is −log10 of the IC50, conventionally taken in molar units.
